We go through four molecules from PubChem BioAssay (NCI).

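Tested at 5 concentrations; 48 h exposure; 96-well plates; endpoints linearly interpolated, else capped at highest concentration. GI50: concentration for 50% inhibition of growth. Definition used: TGI = concentration required for complete inhibition of growth.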 Bounds are passed on as bounds.

Some test systems named below: 786-0 renal; U251 CNS; DU-145 prostate; HS 578T breast; SR leukemia; HL-60(TB) leukemia; OVCAR-5 ovarian; SW-620 colon; NCI/ADR-RES ovarian; NCI-H226 lung.
Holding throughout (test): inhibition of tumour cell growth, NCI panel, 48 h

As for `O=C(CNc1ccc(Cl)cc1)Nc1ccc(-c2nc3ccccc3s2)cc1`, the GI50 was 1.9 µM in the assay on 786-0 renal; 5.24 µM in the assay on U251 CNS; 3.49 µM in the assay on DU-145 prostate; 7.87 µM in the assay on HS 578T breast; 1.43 µM in the assay with SR leukemia; 2.23 µM in the assay on HL-60(TB) leukemia. Further, the GI50 in the assay on OVCAR-5 ovarian was 5.97 µM; with SW-620 colon, 2.15 µM; with NCI/ADR-RES ovarian, 3.42 µM; with NCI-H226 lung it was 2.94 µM. For the same molecule, the TGI with 786-0 renal is 4.03 µM; in the assay with U251 CNS, 10.8 µM; with DU-145 prostate, 11.7 µM; in the assay on HS 578T breast, 47.6 µM; in the assay with SR leukemia, above 24 µM; in the assay on HL-60(TB) leukemia, 6.05 µM. Further, the TGI stood at 13.3 µM in the assay on OVCAR-5 ovarian, 4.73 µM in the assay on SW-620 colon, 11.4 µM with NCI/ADR-RES ovarian and 11 µM in the assay on NCI-H226 lung.
For the molecule `CC(C)=CCNc1ncnc2c1ncn2C1OC(CO)C(O)C1O` (stereo not given), the GI50 was 1.37 µM in the assay on 786-0 renal; 36.2 µM with U251 CNS; 0.277 µM in the assay with DU-145 prostate; 0.684 µM in the assay with HS 578T breast; 0.799 µM in the assay on SR leukemia; 0.29 µM with HL-60(TB) leukemia. The GI50 was 13.3 µM in the assay with OVCAR-5 ovarian, 0.725 µM in the assay with SW-620 colon, 1.5 µM with NCI/ADR-RES ovarian and 2.6 µM in the assay on NCI-H226 lung. Moreover, the TGI is 11.4 µM with 786-0 renal; above 1000 µM in the assay with U251 CNS; 0.943 µM in the assay with DU-145 prostate; 4.33 µM in the assay with HS 578T breast; above 334 µM with SR leukemia; 0.822 µM with HL-60(TB) leukemia. Further, the TGI is above 1000 µM in the assay with OVCAR-5 ovarian, 24.7 µM in the assay with SW-620 colon, 52.1 µM in the assay with NCI/ADR-RES ovarian and 7.1 µM with NCI-H226 lung.
For the molecule `CC(CCC=O)CCOCc1ccccc1` (stereo not given), the TGI in the assay on 786-0 renal was above 100 µM; with U251 CNS, above 100 µM; with DU-145 prostate it was above 100 µM; with HS 578T breast it was above 100 µM; with SR leukemia it was above 80.7 µM; in the assay on HL-60(TB) leukemia, 45.1 µM. For the same molecule, the TGI with OVCAR-5 ovarian, in the assay on SW-620 colon, with NCI/ADR-RES ovarian and in the assay on NCI-H226 lung was above 100 µM each time.
With `Cc1ccc(C)c(C2=C(c3cn(C)c4ccccc34)C(=O)NC2=O)c1`, the GI50 was above 25 µM in the assay on 786-0 renal; above 25 µM with U251 CNS; above 20.2 µM in the assay on DU-145 prostate; above 25 µM in the assay with HS 578T breast; 5.05 µM in the assay on SR leukemia; 6.7 µM with HL-60(TB) leukemia. Besides, the GI50 in the assay with OVCAR-5 ovarian was above 25 µM; in the assay with SW-620 colon it was 13 µM; with NCI/ADR-RES ovarian, above 25 µM; in the assay on NCI-H226 lung, above 25 µM. Moreover, the TGI in the assay on 786-0 renal was above 25 µM; in the assay with U251 CNS, above 25 µM; with DU-145 prostate it was above 25 µM; in the assay with HS 578T breast, above 25 µM; with SR leukemia, above 21 µM; in the assay with HL-60(TB) leukemia it was 16.2 µM. The TGI in the assay on OVCAR-5 ovarian, with SW-620 colon, in the assay on NCI/ADR-RES ovarian and in the assay with NCI-H226 lung was above 25 µM throughout.
